Values after ≈ are worked out from the molar mass of the structure shown.
Details: buffer; pH 7.4; 200.0 µM

`N#C/C(=C\c1ccco1)C(=O)Nc1ccc(S(N)(=O)=O)cc1` and `CCCOc1ccccc1/C=C(\C#N)C(=O)Nc1cccc(C)n1` are within 1.5-fold of each other in solubility kinetic: 3.5 µg/mL (≈ 11 µM) for the first, 5.1 µg/mL (≈ 15.9 µM) for the second.

Compared with `COc1ccc(OC)c([C@@H](O)[C@H](C)NC(C)(C)C)c1.Cl`, `COc1ccccc1CNc1nc(C)c(C(C)=O)s1` is lower in solubility kinetic: over 45.6 µg/mL for the first, 12.1 µg/mL (≈ 43.8 µM) for the second.

Compared with `Cc1cccc(N2C(=O)CC(n3ccnc3)C2=O)c1C` (stereo not given), `CC(=NCC1CCCO1)c1c(O)n(-c2ccccc2C)c(=O)[nH]c1=O` (stereo not given) is higher in solubility kinetic: 32.9 µg/mL (≈ 122 µM) for the first, over 51.5 µg/mL for the second.

`Cc1cccnc1NC(=O)CCNC(=O)c1ccc(Cl)cc1` and `Cc1ccc(OCC(=O)NCCCNC(=O)c2cccnc2)cc1` cannot be ordered by solubility kinetic: over 47.7 µg/mL for the first, over 49.1 µg/mL for the second.

First: CCN(c1ccccc1)S(=O)(=O)c1ccc(OC)c(NC(=O)C2CCC2)c1
Second: CN(c1ccccc1)S(=O)(=O)c1cccc(NC(=O)CCNC(=O)c2ccc([N+](=O)[O-])cc2)c1
The solubility kinetic of the first is 1.8-fold higher: 23 µg/mL (≈ 59.2 µM) for the first, 13 µg/mL (≈ 26.9 µM) for the second.

Compared with `O=C(Nc1ccc(F)cc1)c1cc2ccccc2o1`, `CC(C)N(Cc1ccc(F)cc1)C(=O)c1cc2ccccc2oc1=O` is 2.4-fold lower in solubility kinetic: 1.9 µg/mL (≈ 7.44 µM) for the first, 0.8 µg/mL (≈ 2.36 µM) for the second.

Compared with `CC(C)=CC1C(C(=O)NCCc2ccccc2)C1(C)C` (stereo not given), `CC1CC(C)(C)NC(=S)N1CCCC(=O)Nc1ccccc1F` (stereo not given) is higher in solubility kinetic: 27.6 µg/mL (≈ 102 µM) for the first, over 50.6 µg/mL for the second.

First: O=C(c1noc2c1CCCC2)N1CCc2ccccc2C1
Second: COc1ccc(CCNC(=O)c2csc3c2CCCC3)cc1OC
The solubility kinetic of the first is lower: 40.8 µg/mL (≈ 145 µM) for the first, over 51.8 µg/mL for the second.

First: O=C(NNC(=O)C12CC3CC(CC(C3)C1)C2)c1cccc([N+](=O)[O-])c1
Second: O=C(COC(=O)c1ccccc1)NC12CC3CC(CC(C3)C1)C2
The solubility kinetic of the first is higher: over 51.5 µg/mL for the first, 9.2 µg/mL (≈ 29.4 µM) for the second.

First: O=C(c1cc(-c2ccncc2)nc2ccccc12)N1CCN(c2ncccn2)CC1
Second: COc1ccccc1N1CCN(C(=O)c2cc3cc(Cl)ccc3[nH]2)CC1
The solubility kinetic of the first is higher: 55.4 µg/mL (≈ 140 µM) for the first, under 0.3 µg/mL for the second.

`CCOC(=O)c1cc(NCc2cccs2)ccc1N1CCOCC1` and `CCOC(=O)N1CCN(CC(=O)Nc2ccc(F)c(F)c2)CC1` cannot be ordered by solubility kinetic: 50.4 µg/mL (≈ 145 µM) for the first, over 49.1 µg/mL for the second.

Going from `O=C(Nc1ccncc1)Nc1ccc(Cl)cc1` to `Cc1cc(OCC(=O)Nc2ccncc2)cc(C)c1Cl`, the solubility kinetic falls from 9.8 µg/mL (≈ 39.6 µM) to 2.9 µg/mL (≈ 9.97 µM) (3.4-fold).

First: NS(=O)(=O)c1cccc(NC(=O)CSc2nc3ccccc3c(=O)n2Cc2ccco2)c1
Second: COc1ccccc1N1CN(S(=O)(=O)c2ccc(C)cc2)c2nc3ccccc3nc21
The solubility kinetic of the first is 6.4-fold higher: 6.4 µg/mL (≈ 13.6 µM) for the first, 1 µg/mL (≈ 2.31 µM) for the second.

First: O=[N+]([O-])c1ccc(CNc2ccc(Cl)cc2)s1
Second: Nc1cccc(S(=O)(=O)Nc2ccc(Br)cc2)c1
The solubility kinetic of the first is lower: 6.5 µg/mL (≈ 24.2 µM) for the first, over 49.1 µg/mL for the second.

`O=C(NC1CC1)C1CCN(c2ncccn2)CC1` and `O=C(NCc1cccnc1)C1CCN(S(=O)(=O)c2cc([N+](=O)[O-])ccc2Cl)CC1` cannot be ordered by solubility kinetic: over 36.9 µg/mL for the first, over 65.8 µg/mL for the second.

`NC(=O)COC(=O)c1cccc(S(=O)(=O)N2CCCCC2)c1` and `O=C(CN1CCCCC1)NNC(=O)c1ccc([N+](=O)[O-])cc1` cannot be ordered by solubility kinetic: over 49 µg/mL for the first, over 45.9 µg/mL for the second.

`Cc1ccc(-c2c[n+]3c(n2-c2ccccc2)CCC3)cc1.[Br-]` and `Cc1ccc(C(=O)C[n+]2cccc(C(N)=O)c2)cc1.[Br-]` cannot be ordered by solubility kinetic: over 53.3 µg/mL for the first, over 50.3 µg/mL for the second.

Going from `COC(=O)c1c(NC(C)=O)sc(C(=O)Nc2ccccc2)c1C` to `Cc1cccc(C(=O)Nc2ccc(O)cc2C(=O)O)c1`, the solubility kinetic rises from 0.9 µg/mL (≈ 2.71 µM) to over 40.7 µg/mL.

`CC1CCN(S(=O)(=O)c2c[nH]c(=O)[nH]c2=O)CC1` and `O=c1[nH]c(NCCO)c(N=Cc2ccccc2)c(=O)[nH]1` cannot be ordered by solubility kinetic: over 41 µg/mL for the first, over 41.1 µg/mL for the second.

Compared with `CCC(C)Nc1nc(N)c([N+](=O)[O-])c(NC2CCCCC2)n1` (stereo not given), `CC(=O)Nc1ccc(NC(=O)C(C)OC(=O)CC23CC4CC(CC(Br)(C4)C2)C3)cc1` (stereo not given) is higher in solubility kinetic: under 0.1 µg/mL for the first, over 71.6 µg/mL for the second.

Going from `CC12CN3CC(C)(CN(C1)C3c1ccc(F)cc1)C2` (stereo not given) to `O=[N+]([O-])/C(=C\Nc1ccc(F)cc1F)S(=O)(=O)c1ccccc1`, the solubility kinetic rises from 26.2 µg/mL (≈ 101 µM) to over 51 µg/mL.

Compared with `CCCN1C(=O)/C(=C/c2ccc3c(c2)OCO3)NC1=S`, `Cc1cc(C(=O)NCc2csc(-c3ccccc3)n2)no1` is higher in solubility kinetic: 1.9 µg/mL (≈ 6.54 µM) for the first, over 44.9 µg/mL for the second.

In the case of `COc1cc(C(=O)Nc2nc3ccccc3[nH]2)ccc1OC(F)F`, the solubility kinetic is reported as 1 µg/mL (≈ 3 µM).

Reference: PubChem BioAssay AID1996
